Key:
[1] = tested on: Akt phosphorylation in Molt-4 (PTEN−/SHIP1+) cells; experiment: Akt phosphorylation in IGF-1 stimulated Molt-4 lymphocytes (western blot); assay type: cell-based; parameters: key: +: inhibits Akt phosphorylation at 10 μM; −: no effect on Akt phosphorylation at 10 μM; details: 10 μM; IGF-1 stimulation
Method: (§1) Jurkat (PTEN−/SHIP1−) or Molt-4 (PTEN−/SHIP1+) cells were starved in serum free RPMI for overnight. In a 15 mL conical tube, 2-3 million serum starved cells (1 million cells per mL) were treated with various concentrations of test compound (0.1, 1, or 10 μM final in 0.1% DMSO) for 30 min at 37° C. followed by stimulation with 100 ng/mL of IGF-1 for 1 hour at 37° C. After stimulation, cells were washed once with ice-cold DPBS and lysed with Lysis Buffer (20 mM Tris-HCl, pH 7.5, 140 mM NaCl, 1% NP-40, Complete Mini Protease Inhibitor Cocktail, 10 mM NaF, 1 mM Na3VO4, 1 mM β-glycerolphosphate) on ice for 30 min with vortexing every 10 min. Samples were then centrifuged at 13,000 rpm for 20 min, and supernatants were collected as total cell lysate samples. Protein concentration was determined using bicinchonic acid assay, and about 15 μg of total protein from each sample was loaded and separated on a 4-12% Tris-Glycine gel. After SDS-PAGE, proteins were transferred from the gel to a nitrocellulose membrane. The membrane was blocked in 5% BSA in PBS containing 0.1% Tween-20 (PBS-T) for 1 hour at room temperature before probing with primary antibodies for overnight at 4° C. The following antibodies were used: mouse anti-SHIP1 (1:500 dilution; Santa Cruz, Calif., USA), rabbit anti-phospho-Akt(Ser473) (1:1000 dilution; Cell Signaling Technologies, MA, USA), rabbit anti-Akt (1:1000; Cell Signaling Technologies, MA, USA), and rabbit anti-actin (1:2000; Cell Signaling Technologies, MA, USA). The membrane was then incubated with goat anti-rabbit or anti-mouse secondary antibodies (1:3000) for 1 hour at room temperature. Target proteins on the membrane were detected with ECL solution and exposed on a film.
(§2) Scoring in Table 3 is expressed as follows: + (inhibits Akt phosphorylation at 10 μM); − (no effect on Akt phosphorylation at 10 μM).

[2] = tested on: Akt phosphorylation in Jurkat (PTEN−/SHIP1−) cells; experiment: Akt phosphorylation in IGF-1 stimulated Jurkat lymphocytes (western blot); assay type: cell-based; parameters: key: +: inhibits Akt phosphorylation at 10 μM; −: no effect on Akt phosphorylation at 10 μM; details: 10 μM; IGF-1 stimulation
Method: as §1, §2

[3] = tested on: allergen-induced passive cutaneous anaphylaxis; experiment: Passive cutaneous anaphylaxis in rats; assay type: in vivo; details: oral gavage
Method: The activity of representative compounds on passive cutaneous anaphylaxis in rats was evaluated according to the procedures disclosed by Goose et al., Immunology 16, 749-760, 1969, which is incorporated herein by reference in its entirety. To induce a passive cutaneous anaphylaxis, rats underwent dorsal intradermal inoculation with 50 μL of anti-ovalbumin-IgE. Sixteen hours after inoculation, all rats were administered test compound by oral gavage (PO). Sixty minutes after oral administration, rats were given a tail vein injection of 5 mg Evan's blue and 1 mg ovalbumin. Sixty minutes following the ovalbumin injection, rats were euthanized using CO2 inhalation. Subsequently, skin edema was visualized, measured and scored. When tested in this assay, representative Compound.

Structure (SMILES) | Akt phosphorylation, Molt-4 (SHIP1+) [1] | Akt phosphorylation, Jurkat (SHIP1−) [2] | inhibition of allergen-induced passive cutaneous anaphylaxis ([3]; 30 mg/kg) | inhibition of allergen-induced passive cutaneous anaphylaxis ([3]; 100 mg/kg)
Cc1cc(O)cc2c1[C@]1(C)CC[C@H]3C(C)(C)CCC[C@]3(C)[C@H]1CO2 [Compound No. 6, (1R,10R,11S,16S)-1,3,11,15,15-pentamethyl-8-oxatetracyclo[8.8.0.0^2,7.0^11,16]octadeca-2,4,6-trien-5-ol] | + | − | 14% | 29%
CC1(C)CCC[C@]2(C)[C@H]3CS(=O)(=O)c4cc(O)cc(O)c4[C@]3(C)CC[C@@H]12 [Compound No. 28, (1R,10R,11S,16S)-3,5-dihydroxy-1,11,15,15-tetramethyl-8-thiatetracyclo[8.8.0.0^2,7.0^11,16]octadeca-2,4,6-triene-8,8-dione] | + | − | 26% | 38%
